Counter-ions that a name gives are not always drawn. Like-named read-outs stand apart in the source and are kept apart here.
Assays:
[1] = Determination of Efflux-Ratio (ER) in Caco-2 cells; conditions: human, Caco-2, pH 7.4
Method: Determination of Efflux-Ratio (ER) in Caco-2 Cells
The efflux ratio of the test compounds was determined in Caco-2 human epithelial colorectal adenocarcinoma cell line (TC7 clone) using calculation of apparent permeability (Papp). Cell monolayers were differentiated in vitro for 14 days before the experiment. Subsequently, the test compound (in HBSS pH 7.4 at 1 μM final concentration) was applied on the donor side while HBSS buffer (pH 7.4) was added to the receiver wells. […] The plate was then incubated in a 5% CO2 incubator (37° C., 100% humidity). At the end of the 2 hours incubation period, 50 μL sample was removed from both donor and receiver wells and diluted 1:1 with equal volumes of acetonitrile for LC-MS/MS analysis. The LC-MS/MS analysis used a one-point calibration method from a 1 μM standard solution diluted 1:1 with equal volume of acetonitrile (consistent to the test samples).
The data was used to calculate the apparent permeabilities of the compounds in both apical to basolateral (Papp,AB) and basolateral to apical (Papp,BA) directions at 1 μM concentration in duplicate. The Papp values were calculated from the concentrations in the donor and receiver compartments using the following formula:
Efflux ratio was calculated according to the following formula:

[2] = target: T1, GIST430 cell line expressing constitutive active cKIT receptor tyrosine kinase (Δ560-576 deletion) (Homo sapiens, UniProt P10721, DEL560-576); test: Cellular cKIT autophosphorylation (phospho-Y307-cKIT, Luminex bead assay) in GIST430 cells; type: cell-based
T1 construct: endogenous in cells; host or cells: GIST430 cells
Method: Assay Principle for Cellular Testing of cKIT Mutant Inhibitors
The GIST430 cell line expressing constitutive active cKIT receptor tyrosine kinase (Δ560-576 deletion) and the Imatinib resistant GIST430/654 cell line expressing mutated constitutively active cKIT receptor tyrosine kinase (Δ560-576 deletion and V654A point mutation) were employed for assessing cellular potency of compounds. Cellular activity of mutant cKIT was determined by the degree of cKIT autophosphorylation at tyrosine 307 using a Luminex-based bead assay. GIST430 cells were plated with 22,000 cells per well of a 96-well plate in 100 μl medium (85% IMDM/15% FCS) and GIST430/654 cells were plated with 25,000 cells per well of a 96-well plate in 100 μl medium (85% IMDM/15% FCS supplemented with 100 nM Imatinib). At the following day compounds were added in a serial dilution for 45 min. Then, cells were lysed with 90 μl lysis buffer (20 mM Hepes pH 7.5, 200 mM NaCl, 1.5 mM MgCl2×6H2O, 0.4 mM EDTA, 1% Triton-X-100, 1% Phosphatase-Inhibitor II, 20 mM β-Glycerolphosphat, 0.1% Protease-Inhibitor Cocktail III, 0.01% Benzonase) and lysates were cleared by centrifugation through a 96-well filter plate (0.65 μm). Samples were incubated with Luminex-beads which were coupled with an anti-total cKIT antibody overnight at 4° C. under gentle agitation. For detection of phospho-Y307-cKIT a phosphospecific antibody and a species-specific PE-labeled secondary antibody were added. The amount of phospho-Y307-cKIT was determined in a Luminex 200 instrument measuring 100 events per well within 60 seconds.
Counts from samples treated with compounds were calculated as percent of control from solvent treated (0.3% DMSO) samples. Dose-response curves were fitted and IC50 values were determined using Genedata Screener software.

c-Kit(V654A) = target: T2, c-Kit(V654A) (Homo sapiens, UniProt P10721, V654A); test: c-Kit(V654A) assay (33P-ATP filter binding kinase assay); type: biochemical; conditions: recombinant human c-Kit aa 544-end V654A, ATP 200 μM
T2 construct: recombinant human c-Kit, amino acids 544-end containing the V654A mutation; GST (N)
Outline: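 Radiometric filter-binding read-out: substrate 33P incorporation counted by scintillation after P30 filtermat washes in 75 mM phosphoric acid and methanol. Enzyme: N-GST recombinant human c-Kit aa 544-end carrying V654A.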

[3] = target: T3, GIST430/654 cell line expressing mutated constitutively active cKIT receptor tyrosine kinase (Δ560-576 deletion and V654A point mutation) (Homo sapiens, UniProt P10721, DEL560-576/V654A); test: Cellular cKIT autophosphorylation (phospho-Y307-cKIT, Luminex bead assay) in GIST430/654 cells; type: cell-based; conditions: compounds 45 min, read-out: GIST 430/654 IC50
T3 construct: endogenous in cells; host or cells: GIST430/654 cells
Outline: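 Phospho-Y307 cKIT in lysates was measured on a Luminex bead assay, with total-cKIT capture overnight at 4 °C and phosphospecific plus PE secondary detection. Cells had 45 min exposure to a compound dilution series the day after plating: GIST430 (Δ560-576) or GIST430/654 (Δ560-576/V654A, grown with 100 nM imatinib). IC50 values are relative to 0.3% DMSO-treated cells.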

[4] = cKIT autophosphorylation, GIST430 cells, compounds 45 min, read-out: GIST 430 IC50

T1 sequence (P10721 with tags, fused parts or gaps DEL560-576): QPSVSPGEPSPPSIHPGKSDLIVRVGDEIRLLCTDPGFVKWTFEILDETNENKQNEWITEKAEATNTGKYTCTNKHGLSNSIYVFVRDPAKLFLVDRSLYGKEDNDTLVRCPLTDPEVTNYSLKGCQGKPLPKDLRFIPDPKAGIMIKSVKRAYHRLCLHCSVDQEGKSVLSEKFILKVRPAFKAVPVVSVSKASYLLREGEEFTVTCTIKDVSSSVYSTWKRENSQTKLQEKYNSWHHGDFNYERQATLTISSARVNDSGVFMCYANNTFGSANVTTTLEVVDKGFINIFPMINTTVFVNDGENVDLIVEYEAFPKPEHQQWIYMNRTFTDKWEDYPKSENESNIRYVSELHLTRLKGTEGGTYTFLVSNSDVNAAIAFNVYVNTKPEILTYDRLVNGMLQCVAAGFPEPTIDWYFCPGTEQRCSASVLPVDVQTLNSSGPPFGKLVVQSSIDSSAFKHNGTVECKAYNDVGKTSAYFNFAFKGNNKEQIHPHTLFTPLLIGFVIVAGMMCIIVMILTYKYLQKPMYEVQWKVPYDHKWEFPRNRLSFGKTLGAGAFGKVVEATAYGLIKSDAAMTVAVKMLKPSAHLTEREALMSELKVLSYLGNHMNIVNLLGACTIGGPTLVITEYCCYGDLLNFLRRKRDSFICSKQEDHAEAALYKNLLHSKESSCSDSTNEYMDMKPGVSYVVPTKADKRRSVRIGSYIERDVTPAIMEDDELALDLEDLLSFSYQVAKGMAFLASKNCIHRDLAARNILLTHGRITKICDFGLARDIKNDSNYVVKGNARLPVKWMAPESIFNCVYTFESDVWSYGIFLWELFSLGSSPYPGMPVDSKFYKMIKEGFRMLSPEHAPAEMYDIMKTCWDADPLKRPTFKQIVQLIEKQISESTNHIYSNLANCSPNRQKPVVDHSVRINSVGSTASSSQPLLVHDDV
T3 sequence (P10721 with tags, fused parts or gaps DEL560-576/V654A): as the sequence (P10721 with tags, fused parts or gaps DEL560-576) above, with V612A counted along it
T2 sequence (P10721 544-976 V654A): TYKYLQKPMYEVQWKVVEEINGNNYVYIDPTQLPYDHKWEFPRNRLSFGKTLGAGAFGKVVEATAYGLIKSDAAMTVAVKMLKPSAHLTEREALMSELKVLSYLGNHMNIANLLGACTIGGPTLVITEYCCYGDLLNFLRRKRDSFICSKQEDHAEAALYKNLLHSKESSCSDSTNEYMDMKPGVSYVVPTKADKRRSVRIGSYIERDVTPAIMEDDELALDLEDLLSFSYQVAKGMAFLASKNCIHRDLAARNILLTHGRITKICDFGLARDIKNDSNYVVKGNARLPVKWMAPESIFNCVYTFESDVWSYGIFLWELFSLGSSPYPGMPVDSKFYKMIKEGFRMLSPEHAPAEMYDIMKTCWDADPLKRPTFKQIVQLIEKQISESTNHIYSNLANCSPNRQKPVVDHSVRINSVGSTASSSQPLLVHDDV

An efflux ratio at 2 h, 1 μM [1] of under 15, an IC50 [2, 4] of 3.2e-09 M and an IC50 (c-Kit(V654A)) of 8.6 nM were found for COc1ccn2c(-c3cc(NCc4ccc(-c5cnn(C)c5)cc4)ncn3)cnc2c1 [A1, 6-{7-methoxyimidazo[1,2-a]pyridin-3-yl}-N-{[4-(1-methyl-1H-pyrazol-4-yl)phenyl]methyl}pyrimidin-4-amine] in this work. The IC50 [3] was 55 nM.
An efflux ratio at 2 h, 1 μM [1] of under 15, an IC50 [2, 4] of 7.7e-09 M and an IC50 (c-Kit(V654A)) of 4.6 nM were found for COCCOc1ccn2c(-c3cc(NCc4ccc(-c5ccccc5)cc4)ncn3)cnc2c1 [A2, N-({[1,1′-biphenyl]-4-yl}methyl)-6-[7-(2-methoxyethoxy)imidazo[1,2-a]pyridin-3-yl]pyrimidin-4-amine] in this work. For the same molecule, the IC50 [3] was 160 nM.
An efflux ratio at 2 h, 1 μM [1] of under 15, an IC50 [2, 4] of 4.8e-09 M and an IC50 (c-Kit(V654A)) of 7.3 nM were found for COCCOc1ccn2c(-c3cc(NCc4ccc(-c5cnn(C)c5)cc4)ncn3)cnc2c1 [A4, 6-[7-(2-methoxyethoxy)imidazo[1,2-a]pyridin-3-yl]-N-{[4-(1-methyl-1H-pyrazol-4-yl)phenyl]methyl}pyrimidin-4-amine] in this work. For the same molecule, the IC50 [3] was 48 nM.
An IC50 [2, 4] of 5.3e-09 M, an IC50 (c-Kit(V654A)) of 8.2 nM and an IC50 [3] of 170 nM were found for COCCOc1ccn2c(-c3cc(NCc4ccc(-c5cccnc5)cc4)ncn3)cnc2c1 [A5, 6-[7-(2-methoxyethoxy)imidazo[1,2-a]23yridine-3-yl]-N-{[4-(23yridine-3-yl)phenyl]methyl}pyrimidin-4-amine] in this work.
An IC50 [2, 4] of 2e-08 M, an IC50 (c-Kit(V654A)) of 6.4 nM and an IC50 [3] of 350 nM were found for COc1ccn2c(-c3cc(NCc4ccc(-c5cccnc5)cc4)ncn3)cnc2c1 [A6, 6-{7-methoxyimidazo[1,2-a]23yridine-3-yl}-N-{[4-(23yridine-3-yl)phenyl]methyl}pyrimidin-4-amine] in this work.
An IC50 [2, 4] of 6.1e-09 M, an IC50 (c-Kit(V654A)) of 4.7 nM and an IC50 [3] of 300 nM were found for COCCOc1ccn2c(-c3cc(NCc4ccc(-c5ccn(C)n5)cc4)ncn3)cnc2c1 [A7, 6-[7-(2-methoxyethoxy)imidazo[1,2-a]pyridin-3-yl]-N-{[4-(1-methyl-1H-pyrazol-3-yl)phenyl]methyl}pyrimidin-4-amine] in this work.
An IC50 [2, 4] of 2.4e-09 M, an IC50 (c-Kit(V654A)) of 2.2 nM and an IC50 [3] of 190 nM were found for c1ccn2c(-c3cc(NCc4ccc(-n5cccn5)cc4)ncn3)cnc2c1 [A9, (6-Imidazo[1,2-a]23yridine-3-yl-pyrimidin-4-yl)-(4-pyrazol-1-yl-benzyl)-amine] in this work.
An IC50 [2, 4] of 7e-09 M, an IC50 (c-Kit(V654A)) of 15 nM and an IC50 [3] of 170 nM were found for COCCOc1ccn2c(-c3cc(NCc4ccc(-c5cnn(C)c5)nc4)ncn3)cnc2c1 [A11, 6-[7-(2-methoxyethoxy)imidazo[1,2-a]pyridin-3-yl]-N-{[6-(1-methyl-1H-pyrazol-4-yl)pyridin-3-yl]methyl}pyrimidin-4-amine] in this work.
An efflux ratio at 2 h, 1 μM [1] of under 15, an IC50 [2, 4] of 4.2e-09 M and an IC50 (c-Kit(V654A)) of 6.3 nM were found for COCCOc1ccn2c(-c3cc(NCc4ccc(-n5ccnn5)cc4)ncn3)cnc2c1 [A16, 6-[7-(2-methoxyethoxy)imidazo[1,2-a]pyridin-3-yl]-N-{[4-(1H-1,2,3-triazol-1-yl)phenyl]methyl}pyrimidin-4-amine] in this work. The IC50 [3] was 130 nM.
An efflux ratio at 2 h, 1 μM [1] of under 15, an IC50 [2, 4] of 7.2e-09 M and an IC50 (c-Kit(V654A)) of 13 nM were found for COc1ccn2c(-c3cc(NCc4ccc(-n5ccnn5)cc4)ncn3)cnc2c1 [A18, 6-{7-methoxyimidazo[1,2-a]pyridin-3-yl}-N-{[4-(1H-1,2,3-triazol-1-yl)phenyl]methyl}pyrimidin-4-amine] in this work. The IC50 [3] was 200 nM.
An efflux ratio at 2 h, 1 μM [1] of under 15, an IC50 [2, 4] of 1.8e-09 M and an IC50 (c-Kit(V654A)) of 1.3 nM were found for COc1ccn2c(-c3cc(NCc4ccc(-c5coc(C)n5)cc4)ncn3)cnc2c1 [A42, 6-{7-methoxyimidazo[1,2-a]pyridin-3-yl}-N-{[4-(2-methyl-1,3-oxazol-4-yl)phenyl]methyl}pyrimidin-4-amine] in this work. It also gave an IC50 [3] of 59 nM.
An efflux ratio at 2 h, 1 μM [1] of under 15, an IC50 [2, 4] of 3.9e-09 M and an IC50 (c-Kit(V654A)) of 7.3 nM were found for Cn1cc(-c2ccc(CNc3cc(-c4cnc5cc(OCCN6CCOCC6)ccn45)ncn3)cc2)cn1 [A56, [4-(1-methyl-1H-pyrazol-4-yl)-benzyl]-{6-[7-(2-morpholin-4-yl-ethoxy)-imidazo[1,2-a]pyridin-3-yl]-pyrimidin-4-yl}-amine] in this work. It also gave an IC50 [3] of 50 nM.
An efflux ratio at 2 h, 1 μM [1] of under 15, an IC50 [2, 4] of 3.7e-09 M and an IC50 (c-Kit(V654A)) of 4.1 nM were found for CN1CCC(COc2ccn3c(-c4cc(NCc5ccc(-c6cnn(C)c6)cc5)ncn4)cnc3c2)CC1 [A62, {6-[7-(1-methyl-piperidin-4-ylmethoxy)-imidazo[1,2-a]pyridin-3-yl]-pyrimidin-4-yl}-[4-(1-methyl-1H-pyrazol-4-yl)-benzyl]-amine] in this work. It also gave an IC50 [3] of 32 nM.
An IC50 ([2]; cell line not specified (GIST), read-out: IC50 [M] GIST) of 2.1e-09 M and an IC50 (c-Kit(V654A)) of 5.8 nM were found for Cn1cc(-c2ccc(CNc3cc(-c4cnc5cc(OCCCN6CCCC6)ccn45)ncn3)cc2)cn1 [A75 hydrochloride, [4-(1-methyl-1H-pyrazol-4-yl)-benzyl]-{6-[7-(3-pyrrolidin-1-yl-propoxy)-imidazo[1,2-a]pyridin-3-yl]-pyrimidin-4-yl}-amine hydrochloride] in this work.
An efflux ratio at 2 h, 1 μM [1] of under 15, an IC50 [2, 4] of 2.1e-09 M and an IC50 (c-Kit(V654A)) of 7.8 nM were found for Cn1ncc(-c2ccc(CNc3cc(-c4cnc5cc(OCC6CCN(C7COC7)CC6)ccn45)ncn3)cc2)n1 [A76, [4-(2-methyl-2H-[1,2,3]triazol-4-yl)-benzyl]-{6-[7-(1-oxetan-3-yl-piperidin-4-ylmethoxy)-imidazo[1,2-a]pyridin-3-yl]-pyrimidin-4-yl}-amine] in this work. It also gave an IC50 [3] of 52 nM.
An efflux ratio at 2 h, 1 μM [1] of under 15, an IC50 [2, 4] of 3.6e-09 M and an IC50 (c-Kit(V654A)) of 9.1 nM were found for Cn1cc(-c2ccc(CNc3cc(-c4cnc5cc(OCC6CCN(C7COC7)CC6)ccn45)ncn3)cc2)cn1 [A78, [4-(1-methyl-1H-pyrazol-4-yl)-benzyl]-{6-[7-(1-oxetan-3-yl-piperidin-4-ylmethoxy)-imidazo[1,2-a]pyridin-3-yl]-pyrimidin-4-yl}-amine] in this work. The IC50 [3] was 79 nM.
An efflux ratio at 2 h, 1 μM [1] of under 15, an IC50 [2, 4] of 4.1e-09 M and an IC50 (c-Kit(V654A)) of 1.5 nM were found for CN1CCC(COc2ccn3c(-c4cc(NCc5ccc(-c6cnn(C)n6)cc5)ncn4)cnc3c2)CC1 [A79, {6-[7-(1-methyl-piperidin-4-ylmethoxy)-imidazo[1,2-a]pyridin-3-yl]-pyrimidin-4-yl}-[4-(2-methyl-2H-[1,2,3]triazol-4-yl)-benzyl]-amine] in this work. For the same molecule, the IC50 [3] was 28 nM.
An efflux ratio at 2 h, 1 μM [1] of under 15, an IC50 [2, 4] of 3.3e-09 M and an IC50 (c-Kit(V654A)) of 6.5 nM were found for Cn1ncc(-c2ccc(CNc3cc(-c4cnc5cc(OCC(C)(C)O)ccn45)ncn3)cc2)n1 [A85, 2-methyl-1-(3-{6-[4-(2-methyl-2H-[1,2,3]triazol-4-yl)-benzylamino]-pyrimidin-4-yl}-imidazo[1,2-a]pyridin-7-yloxy)-propan-2-ol] in this work. It also gave an IC50 [3] of 65 nM.
An IC50 [2, 4] of 8.8e-09 M, an IC50 (c-Kit(V654A)) of 6.6 nM and an IC50 [3] of 230 nM were found for COc1ccn2c(-c3ncnc(NCc4ccc(-c5cnn(C)c5)cc4)c3F)cnc2c1 [A97, 5-fluoro-6-{7-methoxyimidazo[1,2-a]pyridin-3-yl}-N-{[4-(1-methyl-1H-pyrazol-4-yl)phenyl]methyl}pyrimidin-4-amine] in this work.
An efflux ratio at 2 h, 1 μM [1] of under 15, an IC50 [2, 4] of 1.5e-09 M and an IC50 (c-Kit(V654A)) of 3.3 nM were found for Cn1ncc(-c2ccc(CNc3cc(-c4cnc5cc(OCCN6CC7(COC7)C6)ccn45)ncn3)cc2)n1 [A108, [4-(2-methyl-2H-[1,2,3]triazol-4-yl)-benzyl]-(6-{7-[2-(2-oxa-6-aza-spiro[3.3]hept-6-yl)-ethoxy]-imidazo[1,2-a]pyridin-3-yl}-pyrimidin-4-yl)-amine] in this work. It also gave an IC50 [3] of 40 nM.
An IC50 [2, 4] of 5.1e-08 M, an IC50 (c-Kit(V654A)) of 92 nM and an IC50 [3] of 30000 nM were found for Cc1cc(N2CC[C@H](F)C2)ncc1CNc1cc(-c2cnc3ccccn23)ncn1 [A155, [6-((S)-3-fluoro-pyrrolidin-1-yl)-4-methyl-pyridin-3-ylmethyl]-(6-imidazo[1,2-a]pyridin-3-yl-pyrimidin-4-yl)-amine] in this work.
